Results on two compounds are retold here after patent publication US20250134845A1, “Fumaric Acid Esters, Inhalation Administration Methods, Pharmaceutical Uses and Compositions” (Emory University, priority 2022, published 2025).

Assay [1] deals with IPF lung fibroblasts. The experiment in a line: H2O2 production in IPF lung fibroblasts (Amplex Red assay). Type of assay: cell-based, human. Conditions: 24 h. As to the method: IPF lung fibroblasts were treated with DMF (1 μM) or vehicle (DMSO) followed by treatment TGF-b (2 ng/ml). H2O2 levels were evaluated at 24 h by Amplex™ Red assay.
Culture supernatant was evaluated for H2O2 levels at 24 h by Amplex™ Red assay.
Since primary mesenchymal cells isolated from IPF lungs represent a heterogeneous population of both fibroblasts and myofibroblasts “(myo)fibroblasts”, the efficacy of DMF was evaluate on both TGF-beta-induced and established profibrogenic phenotypes of these cells. To determine if DMF treatment can inhibit fibrogenic responses induced by TGF-beta, cells were pre-treated with DMF or vehicle followed by treatment with TGF-beta for 24 h.

Assay [2] relates to IPF lung fibroblasts. The experiment in a line: Collagen-1 expression in IPF lung fibroblasts (Western blot, densitometry). Type of assay: cell-based, human. Conditions: vs vehicle. The text has this: Since primary mesenchymal cells isolated from IPF lungs represent a heterogeneous population of both fibroblasts and myofibroblasts “(myo)fibroblasts”, the efficacy of DMF was evaluate on both TGF-beta-induced and established profibrogenic phenotypes of these cells. […]
Background: A western blot detects proteins with antibodies after separation by electrophoresis.

The test system of assay [3] is aged mice with bleomycin-induced persistent lung fibrosis. The experiment in a line: Aging murine model of bleomycin-induced persistent lung fibrosis: reversal of established fibrosis. Type of assay: in vivo, mouse. Conditions: 3-6 weeks post-injury. The procedure:
C57BL/6 aged (18 month) female mice received an intratracheal instillation of bleomycin (0.02875 U/mouse). DMF was administered daily by oral gavage (240 μg/150 μL in sterile PBS/mouse) or intranasal instillation (80 μg/50 μL in sterile PBS/mouse) from 3-6 weeks post-injury. Lung tissue was assessed by hematoxylin and eosin (H&E) staining for histopathology and Masson's trichrome blue staining for collagen. […] At 3 weeks post-bleomycin administration, mice were randomly assigned to one of four treatment groups. Between 3-6 weeks post-injury, DMF or vehicle (sterile PBS) was administered daily by oral gavage (240 μg/dose in 150 μL total volume) (Table 1) using a gavage tube. In parallel, mice were anesthetized using isoflurane and administered DMF or vehicle (sterile PBS) daily by intranasal instillation (80 μg/dose in 50 μL total volume) (Table 1). The control animals received vehicle only. Dosing was based on the solubility of this compound in the vehicle in the total volume used for administration (DMF was dissolved in sterile PBS at 42° C. and sonicated for 50 min). Mice were monitored for body-weight changes and survival. Mice were removed from the study when greater than 20% weight loss was observed compared to pre-surgery (day 0) or lack of responsiveness to touch. At 6 weeks post-injury, mice were sacrificed by CO2 inhalation. This aging model of bleomycin-induced persistent lung fibrosis enables the evaluation of therapeutic agents for their efficacy in reversing age-dependent established fibrosis. […] Using the same injury model and treatment protocol, aged mice were administered DMF or vehicle daily via intranasal delivery from 3-6 weeks post-injury.

Another assay concerns Nrf2. The experiment in a line: Lung Nrf2 expression in aged-injured mice (densitometric analysis). It is filed as in vivo, mouse. The procedure: Oral-vehicle (n=7); oral-DMF (n=7); intranasal-vehicle (n=4); intranasal-DMF (n=4).
(§1) At 3 weeks post-bleomycin administration, mice were randomly assigned to one of four treatment groups. Between 3-6 weeks post-injury, DMF or vehicle (sterile PBS) was administered daily by oral gavage (240 μg/dose in 150 μL total volume) (Table 1) using a gavage tube. In parallel, mice were anesthetized using isoflurane and administered DMF or vehicle (sterile PBS) daily by intranasal instillation (80 μg/dose in 50 μL total volume) (Table 1). The control animals received vehicle only. Dosing was based on the solubility of this compound in the vehicle in the total volume used for administration (DMF was dissolved in sterile PBS at 42° C. and sonicated for 50 min). Mice were monitored for body-weight changes and survival. Mice were removed from the study when greater than 20% weight loss was observed compared to pre-surgery (day 0) or lack of responsiveness to touch. At 6 weeks post-injury, mice were sacrificed by CO2 inhalation.
(§2) In summary, lung-targeted treatment with DMF via inhaled delivery (as compared to oral delivery) can more effectively rescue local Nrf2 expression levels and promote redox homeostasis in the lungs.

The test system of assay [4] is oxidative stress (ROS, oxidized glutathione, lipid peroxidation). The experiment in a line: Blood ROS, lung oxidized glutathione and lung lipid peroxidation in aged-injured mice. Type of assay: in vivo, mouse. The note with it: for blood ROS levels: aged-injured mice. The procedure: Oral-DMF (n=7); intranasal-DMF (n=6).
Oral-vehicle (n=5); oral-DMF (n=5); intranasal-vehicle (n=3); intranasal-DMF (n=4).
Oral-vehicle (n=5); oral-DMF, (n=5); intranasal-vehicle (n=4); intranasal-DMF (n=3).
as §1, §2

Assay [5] relates to IPF lung fibroblasts. Conditions: sulforaphane treatment (Nrf2 activation); cited from earlier work.
Setting [6] is: intranasal 80 μg/dose daily, vs vehicle and oral DMF.
The mark [7] stands for this setting: oral gavage 240 μg/dose daily, aged mice.
Where [8] appears, read: intranasal delivery, 80 μg/dose daily, vs vehicle or oral DMF.

Structures can show the parent of a compound that is named as a salt.

Turning to `COC(=O)/C=C/C(=O)OC` [DMF, dimethyl fumarate], the “TGF-beta-induced production of ROS, specifically H2O2” value with IPF lung fibroblasts [1] (DMF 1 μM pre-treatment, then TGF-b 2 ng/ml, vs vehicle (DMSO)) is “significantly reduced”. In the assay with IPF lung fibroblasts [1] (DMF 1 μM, no TGF-beta, culture supernatant, vs vehicle), the “production of H2O2 (established pro-fibrotic phenotype)” value is “significantly inhibited”. Besides, the “TGF-beta-induced expression of collagen-1” value in the assay on IPF lung fibroblasts [2] (DMF 1 μM pre-treatment, then TGF-b 2 ng/ml, 48 h) is “inhibition”. For the same compound, the “production of collagen-1 (established pro-fibrotic phenotype)” value in the assay with IPF lung fibroblasts [2] (DMF 1 μM, no TGF-beta, 24 h) is recorded as “significantly inhibited”. The “resolution of age-dependent established lung fibrosis (histopathology)” value in assay [3] (intranasal 80 μg/dose daily, aged mice) is given as “resulted in resolution”. For the same compound, in assay [3] (setting [6]), the “lung collagen deposition (Masson's trichrome)” value is “reduced collagen deposition”, the “lung collagen-1 expression levels” value is reported as “significantly decreased”, the “lung fibronectin expression levels” value is listed as “significantly decreased” and the lung hydroxyproline levels entry is “decreased lung hydroxyproline levels”. In assay [3] (setting [7]), the “lung fibrosis compared with vehicle-treated mice” value is “indistinguishable from vehicle-treated mice” and the “resolution of age-dependent established lung fibrosis” value was “failed to promote the resolution”. In addition, the “lung Nrf2 expression levels” value in the assay on Nrf2 (intranasal delivery, 80 μg/dose daily, aged-injured mice) was “significantly increased”. The “lung Nrf2 expression levels” value in the assay with Nrf2 (oral administration, 240 μg/dose daily, aged mice with established fibrosis) was “failed to rescue”. For the same compound, the “blood ROS levels” value in assay [4] (intranasal delivery, 80 μg/dose daily) is recorded as “did not impact”. Besides, in assay [4] (setting [8]), the lung lipid peroxidation entry is “significantly reduced” and the “lung oxidized glutathione levels” value is recorded as “significantly reduced”. Further, the “blood ROS levels” value in assay [4] (oral administration, 240 μg/dose daily) is given as “reduced blood ROS levels”.

Consider `C[S+]([O-])CCCCN=C=S` (stereo not shown) [sulforaphane], for which, in the assay on IPF lung fibroblasts [5], the “antioxidant responses in IPF lung fibroblasts” value is recorded as “restored antioxidant responses” and the “dedifferentiation of IPF myofibroblast” value is “promoted dedifferentiation”.
